# Laboratory results: ChEMBL document CHEMBL2390934, “Synthesis and evaluation of phenoxyoxazaphospholidine, phenoxyoxazaphosphinane, and benzodioxaphosphininamine sulfides and related compounds as potential anti-malarial agents” (Bioorg Med Chem Lett, 2013)
# pIC50: −log10 of the molar value. Activity calls are given as the source filed them. No cut-off for these calls is given here.
# Tested on: Plasmodium falciparum
# Test: Antimalarial activity against Plasmodium falciparum 3D7 infected in O positive erythrocytes assessed as parasite lactate dehydrogenase activity after 72 hrs
# Assay type: functional, organism-based
# Settings: 3D7, 72 h
row,SMILES,pIC50
1,Cc1ccc(OP2(=S)NCCO2)c([N+](=O)[O-])c1 (configuration not stated),< 3.89
2,CCCNP1(=S)OCc2ccccc2O1 (configuration not stated),4.02
3,FC(F)(F)c1ccc(OP2(=S)OCCS2)cc1 (configuration not stated),4.19
4,CC(C)NP1(=S)OCc2cc([N+](=O)[O-])ccc2O1 (configuration not stated),3.97
5,CC(C)CNP1(=S)OCc2cc([N+](=O)[O-])ccc2O1 (configuration not stated),3.93
6,CC1COP(=S)(Oc2ccc(C(F)(F)F)cc2)N1 (racemic),< 3.89
7,CC(C)NP1(=S)OCc2ccccc2O1 (configuration not stated),4.21
8,CCOP(=O)(NC(C)C)Oc1cc(O)ccn1 (configuration not stated),3.89
9,CCOP(=S)(NCCCCNc1ccnc2cc(Cl)ccc12)Oc1ccc(C(F)(F)F)cc1 (configuration not stated),7.42
10,CCOP(=O)(NC(C)C)Oc1ccc(C(F)(F)F)cn1 (configuration not stated),4.60
11,CCOP(=O)(NC(C)C)Oc1cc(C)c([N+](=O)[O-])cn1 (configuration not stated),4.60
12,Cc1ccc([N+](=O)[O-])cc1OP1(=S)NCCO1 (configuration not stated),4.62
13,FC(F)(F)c1ccc(OP2(=S)NCCCO2)cc1 (configuration not stated),4.21
14,CCOP(=O)(NC1CCCC1)Oc1ccc(C(F)(F)F)cn1 (configuration not stated),4.64
15,CCOP(=O)(NC(C)C)Oc1ccc2ccccc2c1 (configuration not stated),4.06
16,Cc1cc([N+](=O)[O-])ccc1OP1(=S)NCCO1 (configuration not stated),4.29

row,SMILES,pIC50
1,NCCCCNc1ccnc2cc(Cl)ccc12,6.19
2,FC(F)(F)c1ccc(OP2(=S)NCCO2)cc1 (configuration not stated),3.97
3,CCOP(=O)(NC(C)C)Oc1nccc(C)c1[N+](=O)[O-] (configuration not stated),3.89
4,Cc1ccc(OP2(=S)NCCCO2)c([N+](=O)[O-])c1 (configuration not stated),< 3.89
5,Cc1ccc([N+](=O)[O-])cc1OP1(=S)NCCCO1 (configuration not stated),3.97
6,Cc1cc([N+](=O)[O-])ccc1OP1(=S)NCCCO1 (configuration not stated),3.89
7,CCOP(=S)(NC(C)C)Oc1ccc(C(F)(F)F)cn1 (configuration not stated),4.54
8,Cc1cc2c(c([N+](=O)[O-])c1)OP(=S)(NC(C)C)OC2 (configuration not stated),< 3.89
9,CCOP(=O)(NC(C)C)Oc1ccc2ccccc2c1[N+](=O)[O-] (configuration not stated),4.01
10,CCOP(=O)(NC(C)C)Oc1cc(C)ccn1 (configuration not stated),3.89
11,CCOP(=S)(NC1CCCC1)Oc1cccc2cccnc12 (configuration not stated),4.60
12,Cc1ccc([N+](=O)[O-])c(OP2(=S)NCCCO2)c1 (configuration not stated),< 3.89
13,Cc1ccc(OP2(=S)NC(C)CO2)c([N+](=O)[O-])c1 (mixture of isomers),4.11
14,CC(C)CNP1(=S)OCc2ccccc2O1 (configuration not stated),4.24
15,CCOP(=S)(NC1CCCC1)Oc1ccc2ncccc2c1 (configuration not stated),4.72

# Tested on: Plasmodium falciparum
# Test: Antimalarial activity against chloroquine-resistant Plasmodium falciparum K1/Thailand infected in O positive erythrocytes assessed as parasite lactate dehydrogenase activity after 72 hrs
# Assay type: functional, organism-based
# Settings: not given
row,SMILES,Activity
1,CCOP(=S)(NCCCCNc1ccnc2cc(Cl)ccc12)Oc1ccc(C(F)(F)F)cc1 (configuration not stated),Active
